Data set [1] has as its system HCoV-229E-GFP. Type of data set: cell-based.
Data set [2] concerns SARS-CoV-2 (MAD-6). Description: microbe, parasite or virus in culture. Format: cell-based. The settings on record: Severe acute respiratory syndrome coronavirus 2, Vero C1008.
Data set [3] deals with SARS-CoV-2 (MAD-6). In words: microbe, parasite or virus in culture. Type of data set: cell-based. To be noted: Severe acute respiratory syndrome coronavirus 2, Caco-2.
Data set [4] concerns HCoV-229E-GFP. Description: organism not typed. Type of data set: cell-based.
Data set [5] has as its system foot-and-mouth disease virus (FMDV). To be noted: cited from earlier work.
The test system of data set [6] is HCoV-229E-GFP. Type of data set: cell-based. The source holds these as a separate data set.
Data set [7] in a line: Cell viability by MTT assay (cytotoxicity), Caco-2. To be noted: human, Caco-2 cells. (Tetrazolium dyes change colour on reduction, which living cells bring about.)
Data set [8] is described as follows: Cell viability by MTT assay (cytotoxicity), Huh-7. To be noted: human, Huh-7 cells.
The test system of another data set is FMDV. To be noted: mouse, in vivo, 100 mg/kg; cited from earlier work.
For the next data set, the system named is SARS-CoV-2. Description: microbe, parasite or virus in culture. Format: cell-based. To be noted: for IC50: Severe acute respiratory syndrome coronavirus 2, Vero C1008.
Data set [9] has as its system HCoV-229E-GFP.
Data set [10] in a line: Cell viability by MTT assay (cytotoxicity), Vero-E6. To be noted: African green monkey, Vero-E6 cells.

Read-outs that look alike come from different tables or passages of the source.

These results are taken from patent publication EP4104829A1 (priority 2021, dated 2022).

As a reminder, the IC50 is the concentration that gives 50% inhibition. High values mean weaker potency, low ones greater potency. Broadly, the CC50 is the concentration giving 50% cytotoxicity. As for `CCCCCCCCCCCCOC(=O)c1cc(O)c(O)c(O)c1` [LG, Lauryl Gallate], the IC50 was found to be 2.05 µM in the data set on HCoV-229E-GFP [1], 1.28 µM with SARS-CoV-2 (MAD-6) [2], 2.98 µM in the data set with SARS-CoV-2 (MAD-6) [3] and 1.22 µM with SARS-CoV-2. The “direct virucidal effect on the virus particle” value with SARS-CoV-2 MAD-6 and in the data set on HCoV-229E-GFP [9] was “No direct toxicity” in each case. For the same compound, in the data set on HCoV-229E-GFP [4], the “reduction of the HCoV-229E-GFP infection” value is reported as “up to 2 log.u”. Moreover, in data set [5], the “reduction of the virus productivity” value was “up to 2 log.u”. The “decrease in the HCoV-229E-GFP yield” value with HCoV-229E-GFP [6] was “more than 2 log.u”. Besides, the CC50 at 24 h in data set [7] is 97.1 µM; in data set [8] it was 83.1 µM; in data set [10] it was 90.1 µM. The clinical signs entry with FMDV is listed as “reduction”. In addition, the mortality result in the data set with FMDV is “reduction”. Further, the “viral RNA copies in different tissues” value in the data set on FMDV is on record as “reduction”. Besides, the SI in the data set on SARS-CoV-2 is recorded as 70,9.

Take `CCCCCCCCOC(=O)c1cc(O)c(O)c(O)c1` [OG, octyl gallate]: the “reduction of the HCoV-229E-GFP infection” value with HCoV-229E-GFP [4] was “up to 2 log.u”. Moreover, the IC50 in the data set on HCoV-229E-GFP [4] (Huh-7) was 6.21 µM. Further, the “inhibition of FMDV production” value in data set [5] is recorded as “totally ineffective”.

`CCCOC(=O)c1cc(O)c(O)c(O)c1` [PG, propyl gallate]: the virus inhibition entry with HCoV-229E-GFP [4] was “unable to produce virus inhibition”. The “inhibition of FMDV production” value in data set [5] is on record as “totally ineffective”.

`O=C(O[C@@H]1Cc2c(O)cc(O)cc2O[C@@H]1c1ccc(O)c(O)c1)c1cc(O)c(O)c(O)c1` [epicatechin gallate]: in the data set on SARS-CoV-2, the SI is recorded as 5,8 and the IC50 turned out to be 50.1 µM.

In the case of `O=C(O)c1cc(O)c(O)c(O)c1` [gallic acid], the virus inhibition result with HCoV-229E-GFP [4] is “unable to produce virus inhibition”. Further, in [5], the “inhibition of FMDV production” value is “totally ineffective”. Besides, in the data set on SARS-CoV-2, the SI is 6,2 and 40.3 µM corresponded to half-maximal inhibition (IC50).
